The values below come from patent publication US8741944B2, “Anti-infective agents against intracellular pathogens” (priority 2007, dated 2014).

Entries after “also recorded” stand apart in the source; their conditions may differ. Like-named read-outs stand apart in the source and are kept apart here.

The target in one data set is recombinant PDK-1 (Homo sapiens (Human), UniProt O15530). In words: PDK-1 kinase activity (PDK-1 kinase assay kit, cell-free). Format: biochemical. The note with it: for IC50: inhibiting recombinant PDK-1 kinase activity. The method, then: PDK-1 kinase activity This in vitro assay was performed using a PDK-1 kinase assay kit (Upstate, Lake Placid, N.Y.) according to the vendor's instructions. This cell-free assay is based on the ability of recombinant PDK-1, in the presence of DMSO vehicle or the test agent, to activate its downstream kinase serum- and glucocorticoid-regulated kinase (SGK.) which, in turn, phosphorylates the Akt/SGK-specific peptide substrate RPRAATF with [γ-^32]-ATP. […] The reported values represent the means of two independent determinations.
Chain of recombinant PDK-1 (O15530 whole entry, looked up): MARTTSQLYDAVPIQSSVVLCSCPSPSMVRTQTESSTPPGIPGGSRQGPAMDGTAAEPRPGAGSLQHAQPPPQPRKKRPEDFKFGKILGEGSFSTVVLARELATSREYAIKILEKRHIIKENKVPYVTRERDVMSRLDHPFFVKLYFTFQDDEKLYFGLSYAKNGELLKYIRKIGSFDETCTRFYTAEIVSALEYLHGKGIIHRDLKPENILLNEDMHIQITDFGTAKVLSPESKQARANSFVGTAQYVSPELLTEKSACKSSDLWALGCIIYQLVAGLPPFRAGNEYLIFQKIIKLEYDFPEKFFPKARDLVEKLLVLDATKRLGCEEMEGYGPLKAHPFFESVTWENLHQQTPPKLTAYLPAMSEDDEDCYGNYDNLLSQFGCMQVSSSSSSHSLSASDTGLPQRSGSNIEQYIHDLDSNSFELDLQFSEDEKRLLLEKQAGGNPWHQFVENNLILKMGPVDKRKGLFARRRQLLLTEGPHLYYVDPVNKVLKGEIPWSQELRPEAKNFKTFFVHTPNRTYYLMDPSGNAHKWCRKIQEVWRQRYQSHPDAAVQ

In data set [1] the test system is PC-3 cells. Description: Cell viability analysis, MTT assay in PC-3 cells. The data set is classed as cell-based, human. The method, then: Cell Culture PC-3 (p53−/−) human androgen-non-responsive prostate cancer cells were purchased from the American […] (Manassas, Va.). Cells were cultured in RPMI 1640 medium (Gibco, Grand Island, N.Y.) supplemented with 10% fetal bovine serum (FBS; Gibco) at 37° C. in a humidified incubator containing 5% CO2.
Controls received DMSO vehicle at a concentration equal to that in drug-treated cells. The medium was removed, replaced by 200 μl of 0.5 mg/ml of MTT in 10% FBS-containing RPMI-1640 medium, and cells were incubated in the CO2 incubator at 37° C. for 2 h. Supernatants were removed from the wells, and the reduced MTT dye was solubilized in 200 μL/well DMSO. Absorbance at 570 nm was determined on a plate reader.

The test system of data set [2] is PC-3 cells. In words: Cell proliferation of PC-3 cells (Coulter counter, 10% FBS). Format: cell-based, human. The note with it: 1 μM, 10% FBS-supplemented RPMI 1640 medium. The protocol:
Cell Proliferation PC-3 cells were seeded into six-well plates at 50,000 cells/well in 10% FBS-containing RPMI 1640 medium. Following a 24 h attachment period, cells were treated in triplicate with the indicated concentration of compounds 1-36 or DMSO vehicle in 10% FBS-containing RPMI-1640 medium. At different time intervals, cells were harvested by trypsinization, and numerated using a Coulter counter model Z1 D/T (Beckman Coulter, Fullerton, Calif.).

Data set [3] deals with Akt. Description: Direct inhibition of immunoprecipitated Akt kinase activity. Format: biochemical, human.
Data set [4] concerns Akt. In words: Immunoprecipitated Akt kinase assay after treatment of PC-3 cells (intracellular Akt activation). Format: cell-based, human. The note with it: PC-3 cells treated for 2 h; read-out: IC50 for inhibiting intracellular Akt activation. The method, then:
Immunoprecipitated Akt kinase assay Akt immunoprecipitation was carried out according to a modified, published procedure. PC-3 cells were treated with DMSO vehicle or the test agents at the indicated concentrations for 2 h and then lysed at 4° C. for 1 h in buffer A containing 50 mM Tris-HCl, pH 7.5, 1% Triton X-100, 1 mM EDTA, 1 mM EGTA, 50 mM sodium fluoride, 10 mM sodium β-glycerophosphate. 0.1% 2-mercaptoethanol, 0.1 mM phenylmethylsiilfonyl fluoride, and 1 μg/mL each of aprotinin, pepstatin, and leupeptin. Cell lysates were centrifuged at 10,000 g for 5 min, and the supernatant was treated with anti-Akt at 4° C. for 60 min., followed by protein G-agarose beads for additional 60 min. The immunoprecipitate was used to analyze Akt kinase activity by using the Akt/SGK-specific peptide substrate RPRAATF as described above. Values represented the means of two independent determinations.

For another data set, the system named is phospho-Akt. Description: Western blot analysis of Akt and phospho-Akt in PC-3 cells. The data set is classed as cell-based, human. The note with it: 5 μM and above. The method, then: Immunoblotting. The general procedure for the Western blot analysis of Akt and phospho-Akt is described as follows. Cells were washed in PBS, resuspended in SDS sample buffer sonicated by an ultrasonic sonicator for 5 see, and boiled for 5 min. After brief centrifugation, equivalent protein concentrations from the soluble fractions were resolved in 10% SDS-polyacrylamide gels on a Minigel apparatus, and transferred to a nitrocellulose membrane using a semi-dry transfer cell. The transblotted membrane was washed three times with TBS containing 0.05% Tween 20 (TBST). After blocking with TBST containing 5% nonfat milk for 60 min., the membrane was incubated with the primary antibody at 1:1,000 dilution in TBST-5% low fat milk at 4° C. for 12 h, and was then washed three times with TBST. The membrane was probed with goat anti-rabbit IgG-HRP conjugates (1:1,000) for 1 h at room temperature, and was washed with TBST three times. The immunoblots were visualized by enhanced chemiluminescence.

Data set [5] deals with S. typhimurium. In words: Intracellular survival (gentamicin protection) assay, S. typhimurium in RAW 264.7 murine macrophages. Format: cell-based, Salmonella typhimurium. The protocol: The discovery that OSU-03012 induces autophagy in human cancer cells, coupled with the importance of autophagy as a defense against intracellular pathogens, prompted us to test the effect of this agent on the intracellular survival of S. typhimurium in infected RAW 264.7 murine macrophages. Both time- and dose-dependent effects of OSU-03012 were assessed in intracellular survival (i.e. gentamicin protection) assays. […] To determine if OSU-03012 had direct bactericidal activity, the effect of OSU-03012 on extracellular bacterial growth was examined in liquid medium (FIG. 3C) and on agar by the disc-diffusion method (not shown).

The subject of data set [6] is S. typhimurium. Description: Extracellular bacterial growth in liquid medium and on agar (disc-diffusion). The data set is classed as cell-based, Salmonella typhimurium. Particulars: concentrations of up to 5 μM.
The conditions of data set [7]: in vivo.
The subject of another data set is F. novicida. The data set is classed as cell-based. Particulars: RAW 264.7 cells, 1 μM for 24 h.
The next data set relates to autophagy. Description: Autophagy induction. The data set is classed as cell-based, human. The source says:
OSU-03012 eliminates intracellular S. typhimurium by inducing autophagy in infected macrophages. […] Additional evidence for this mechanism of action comes from the human breast cancer cell lines, MCF-7 and MDA-MB-231, which differ in their expression levels of beclin-1, a tumor suppressor that is critical for the execution of autophagy (FIG. 5A). Accordingly, the ability of OSU-03012 to induce autophagy in these cell lines, as determined by the intensity of immunostaining for endogenous LC3, a marker of mammalian autophagosomes (FIG. 5C), correlates with their respective beclin-1 expression levels. Moreover, intracellular bacterial survival in OSU-03012-treated S. typhimurium-infected breast cancer cells also reflects their respective beclin-1 status (FIG. 5B). […] Moreover, OSU-03012 induces autophagy and bacterial clearance far more potently than rapamycin and at clinically attainable concentrations.

[8] abbreviates: inducing apoptotic death in PC-3 cells / PC-3 cell viability, read-out: IC50 PC-3.

“4-[5-4-biphenylyl)-3-(trifluoromethyl)-1H-pyrazol-1-yl]benzensulfonamide [Compound 45]”: the figures for the IC50 on recombinant PDK-1 and in the data set on PC-3 cells [1] (setting [8]) were 21 µM and 11 µM, respectively.
Regarding “4-[5-(2-phenanthrenyl)-3-(trifluoromethyl)-1H-1-yl]benzenesulfonamide [Compound 59]”, the “anti-proliferative activity on PC-3 cell proliferation” value in the data set with PC-3 cells [2] was “substantial anti-proliferative activity”. Also, the “direct inhibitory effect on immunoprecipitated Akt kinase activity” value with Akt [3] is on record as “Neither compound 59 nor other the other compounds displayed a direct inhibitory effect”. The IC50 in the data set on Akt [4] was determined as 5 µM; in the data set with PC-3 cells [1] (24 h, 1% FBS-containing RPMI 1640 medium, read-out: dose required to induce 50% PC-3 cell death) it was 5 µM; with PC-3 cells [1] (setting [8]), 5 µM. Also, in the data set with phospho-Akt, the “Akt dephosphorylation (Western blot)” value is recorded as “significant Akt dephosphorylation”. Moreover, the “improvement of IC50 values over 4-[5-(4-methylphenyl)-3-(trifluoromethyl)-1H-pyrazol-1-yl]benzenesulfonamide” value on recombinant PDK-1 (PDK-1 activity and PC-3 cell viability) is reported as “five- to six-fold”.
On to “4-[5-(3′,5′-dimethyl[1,1;-biphenyl]-4-yl)-3-(trifluoromethyl)-1H-1-yl]benzenesulfonamide [Compound 53]”, for which, on recombinant PDK-1, the IC50 is 17 µM.
For the molecule “4-[5-(4-(phenylmethyl)phenyl)-3-(trifluoromethyl)-1H-1-yl]benzenesulfonamide [Compound 56]”, the IC50 on recombinant PDK-1 was found to be 15 µM; with PC-3 cells [1] (setting [8]), 8 µM.
For “4-[5-(4′-bromomethyl[1,1′-biphenyl]-4-yl)-3-(trifluoromethyl)-1H-1-yl]benzenesulfonamide [Compound 52]”, in that order: 20 µM and 11 µM.
For the molecule “4-[5-(4′-butyl[1,1′-biphenyl]-4-yl)-3-(trifluoromethyl)-1H-1-yl]benzenesulfonamide [Compound 54]”, the IC50 was determined as 32 µM on recombinant PDK-1 and 15 µM in the data set with PC-3 cells [1] (setting [8]).
As for “4-[5-(4′-methyl[1,1′-biphenyl]4-yl)-3-(trifluoromethyl)-1H-1-yl]benzenesulfonamide [Compound 50]”, in the data set on PC-3 cells [1] (setting [8]), the IC50 was 8 µM.
Turning to “4-[5-(4′-tert-buty[1,1′-biphenyl]-4-yl)-3-(trifluoromethyl)-1H-1-yl]benzenesulfonamide [Compound 55]”, the IC50 came out at 32 µM on recombinant PDK-1 and 15 µM with PC-3 cells [1] (setting [8]).
For “4-[5-(4′triflouromethyl[1,1′-biphenyl]-4-yl)-3-(trifluoromethyl)-1H-1-yl]benzenesulfonamide [Compound 51]”, in that order: 18 µM and 8 µM.
“4-[5-(9-phenanthrenyl)-3-(trifluoromethyl)-1H-1-yl]benzenesulfonamide [Compound 60]”: the IC50 at recombinant PDK-1 was determined as 42 µM; with PC-3 cells [1] (setting [8]), 23 µM.
As to “4-[5-(9H-fluoren-2-yl)-3-(trifluoromethyl)-1H-1-yl]benzenesulfonamide [Compound 57]”, on recombinant PDK-1, the IC50 was 16 µM.
With “5-(2-Phenanthrenyl)-3-(trifluoromethyl)-4-(1H-tetrazol-5-ylmethylphenyl)-1H-pyrazole [Compound 69]”, the results for the IC50 at recombinant PDK-1 and in the data set with PC-3 cells [1] (setting [8]) were 45 µM and 27 µM, respectively.
Taken in the same sequence, the figures for “5-(2-Phenanthrenyl)-3-(trifluoromethyl)-4-(1H-tetrazol-5-ylphenyl)-1H-pyrazole [Compound 64]” were 52 µM and 32 µM.
With `Cc1ccc(-c2cc(C(F)(F)F)nn2-c2ccc(S(N)(=O)=O)cc2)cc1` [Comparative Compound, 4-[5-(4-methylphenyl)-3-(trifluoromethyl)-1H-pyrazol-1-yl]benzenesulfonamide, reference compound], the IC50 in the data set on PC-3 cells [1] (Homo sapiens, PC-3, read-out: IC50 PC-3) stood at 30 µM.
As for `Cn1cnc(N)c2ncnc1-2` [Compound 3MA, 3-methyladenine], the “effect on ability of OSU-03012 to reduce intracellular bacterial survival” value in the data set with S. typhimurium [5] (infected RAW 264.7 cells, 1 μM OSU-03012 for 8 h) is recorded as “completely blocked”.
In the case of `NCC(=O)Nc1ccc(-n2nc(C(F)(F)F)cc2-c2ccc3c(ccc4ccccc43)c2)cc1` [OSU-03012], in the data set on S. typhimurium [6], the “extracellular growth of S. typhimurium” value is recorded as “unaffected”. For the same molecule, the “oral bioavailability / pharmacokinetic properties” value in data set [7] is on record as “orally bioavailable with favorable pharmacokinetic properties”. In the data set with F. novicida, the “intracellular survival of F. novicida” value is “drastically reduced; also recorded: reduced intracellular survival”. Moreover, in the data set with S. typhimurium [5] (S. typhimurium in RAW 264.7, 8 h of treatment), the “concentration of maximal inhibition of intracellular bacterial survival” value stood at 1 µM. In addition, the IC50 in the data set with S. typhimurium [5] (Salmonella enterica, RAW264.7, S. typhimurium in RAW 264.7, 8 h of treatment, read-out: IC50 of intracellular bacterial survival) is around 0.2 µM; on recombinant PDK-1 it was around 5 µM. Also, the “IC50 for autophagy induction” value in the data set on autophagy was “sub-μM”.
In the case of `CO[C@H]1C[C@@H]2CC[C@@H](C)[C@@](O)(O2)C(=O)C(=O)N2CCCC[C@H]2C(=O)O[C@H]([C@H](C)C[C@@H]2CC[C@@H](O)[C@H](OC)C2)CC(=O)[C@H](C)/C=C(\C)[C@@H](O)[C@@H](OC)C(=O)[C@H](C)C[C@H](C)/C=C/C=C/C=C/1C` [rapamycin], the “suppression of survival of S. typhimurium in murine macrophages” value with S. typhimurium [5] was “capable of suppressing survival”. In addition, in the data set with S. typhimurium [5] (S. typhimurium in murine macrophages), the “fold higher concentration required to match bacterial clearance caused by OSU-03012” value is recorded as around 100 fold.
